Source: US20020082273A1, “Agents for use in the treatment of alzheimer's disease” (priority 1998, published 2002)
“And” between values parts separate entries of the source, which are not always exact repeats. Equal values may be shown once. “Also recorded” adds a separate entry of the source.

Experiments:
[1] = TBARS assay of OH.; format: biochemical; conditions: scavenger 5 mM; Fe^3+ or Cu^2+
Protocol: All data points are means ±SD, n=3.
The Thiobarbituric Acid-Reactive Substance (TBARS) assay for incubation mixtures with Fe^3+ or Cu^2+ was performed in a 96-well microtiter format modified from established protocols (Gutteridge et al. Biochim. Biophys. Acta 759: 38-41 (1983)). Aβ peptide species (10 μM) or Vitamin C (100 μM), were incubated with Fe^3+ or Cu^2+ (1 μM) and deoxyribose (7.5 mM, Sigma) in PBS, pH 7.4. Following incubation (37° C., 1 hour), glacial (17 M) acetic acid and 2-thiobarburic acid (1%, w/v in 0.05 M NaOH, Sigma) were added and heated (100° C., 10 min). The final mixtures were placed on ice for 1-3 minutes before absorbances at 532 nm were measured. The net absorbance change for each sample were obtained by deducting the absorbance from a control sample consisting of identical chemical components except for the Vitamin C or Aβ peptides.

[2] = system: Aβ; experiment: Effect of agents on Cu^2+-induced SDS-resistant Aβ polymerization; format: biochemical, human
Protocol: Cu^2+-induced SDS-resistant oligomerization of Aβ: Aβ (2.5 μM), 150 mM NaCl, 20 mM hepes (pH 6.6, 7.4, 9) with or without ZnCl2 or CuCl2. Following incubation (37° C.), aliquots of each reaction (2 ng peptide) were collected at 0 d, 1 d, 3 d and 5 d and western blotted using anti-Aβ monoclonal antibody 8E10 (FIG. 9). Migration of the molecular size markers are indicated (kDa). […] Cu^2+ (2-30 μM) induced SDS-resistant polymerization of peptide. […] It should be noted that other means of visualizing and/or determining the presence or absence of polymerization other than western blot analysis may be used. Such other means include but are not limited to density sedimentation by centrifugation of the samples.
It is possible that the decreased polymerization may be due to chelation of Cu^2+ by BC, however given the low binding affinity of BC for Cu^2+ compared with Aβ, it seems likely that the chelation of Cu^+ by BC prevents it from inducing SDS-resistant Ad polymerization. Therefore, Aβ may undergo a hydroxyl radical modification that promotes its assembly into SDS-resistant polymers.

[3] = system: Aβ deposits of AD-affected brain; experiment: Extraction (solubilization) of Aβ from post-mortem AD brain tissue homogenates, western blot densitometry; format: biochemical, human
Protocol: Identical regions of frontal cortex (0.5 g) from post-mortem brains of individuals with AD, as well as non-AD conditions, were homogenized in TBS, […] ±metal chelators.
0.5 g of prefrontal cortex was dissected and homogenized in PBS ±chelator as indicated. The homogenate was then centrifuged (100,000 g) and the supernatant removed, and a sample taken for western blot assay using anti-Aβ specific antibodies after Tricine PAGE. Densitometry was performed against synthetic peptide standards.
Densitometry of Aβ western blots (FIGS. 19A-19C) was performed for a series of 6 AD brain samples homogenized in the presence of chelators as indicated.
Next the ability of clioquinol to extract Aβ deposits from human brain was examined. […] Fragments of prefrontal cortex from individual post-mortem samples with the histopathological diagnosis of AD were homogenized in PBS, pH 7.4, and then pelleted after centrifugation. The pellets were then washed with agitation twice for 30 minutes, 4° C., with PBS or PBS containing clioquinol (100% =0.8 μM clioquinol). The suspension was then pelleted (10,000 g for 30 minutes) and the supernatant removed (S1) for western blot analysis using Aβ-specific antibodies (illustrated). The pellet was treated a second time in this experiment with agitation and centrifugation, and the second supernatant (S2) analysed.
Soluble Aβ (ng/g tissue) was determined as described. Total Aβ was determined following formic acid extraction of otherwise untreated tissue.
(§1) Suitable quantities of gray matter from each subject were minced to serve as pools of homogenous tissue. […] To obtain the soluble fraction, the homogenates were centrifuged at 100,000× g for 30 min (Beckman J180, Beckman instruments, Fullerton, California) and the supernatant collected in 1 ml aliquots and stored on ice or immediately frozen at −70° C. In each experiment, all protein was precipitated from 1 ml of supernatant from each treatment group using 1:5 ice cold 10% trichloracetic acid and pelleted in a bench top microfuge (Heraeus, Osteroder, Germany) at 10,000× g. The remaining pellet was frozen at −70° C.
Precipitated protein was subjected to SDS polyacrylamide gel electrophoresis (SDS-PAGE) on Novex pre-cast 10-20% Tris-Tricine gels followed by Western transfer onto 0.2 μm nitrocellulose membrane (Biorad, Hercules, Calif.). […] Each gel included two or more lanes containing known quantities of synthetic Aβ which served as internal reference standards. Blot images were captured by a Relisys scanner with transparency adapter (Teco Information Systems, Taiwan, ROC) and densitometry conducted using the NIH Image 1.6 program (National Institutes for Health, USA. Modified for PC by Scion Corporation, Frederick, Md.), calibrated using a step diffusion chart. For quantitation of Aβ in brain extracts, the internal reference standards of synthetic Aβ were utilized to produce standard curves from which values were interpolated.

[4] = system: Aβ deposits of age-matched control brain; experiment: Extraction of Aβ from age-matched non-AD control brain tissue; format: biochemical, human
Protocol: as §1
Precipitated protein was subjected to SDS polyacrylamide gel electrophoresis (SDS-PAGE) on Novex pre-cast 10-20% Tris-Tricine gels followed by Western transfer onto 0.2 μm nitrocellulose membrane (Biorad, Hercules, Calif.). Aβ was detected using the WO2, G210 or G211 monoclonal antibodies (Ida, N., et al., J. Biol. Chem., 271:22908 (1996)) in combination with HRP-conjugated rabbit anti-mouse IgG (Dako, Denmark), and visualized using chemiluminescence (ECL, Amersham Life Science, Little Chalfont, Buckinghamshire, UK). Each gel included two or more lanes containing known quantities of synthetic Aβ which served as internal reference standards. Blot images were captured by a Relisys scanner with transparency adapter (Teco Information Systems, Taiwan, ROC) and densitometry conducted using the NIH Image 1.6 program (National Institutes for Health, USA. Modified for PC by Scion Corporation, Frederick, Md.), calibrated using a step diffusion chart. For quantitation of Aβ in brain extracts, the internal reference standards of synthetic Aβ were utilized to produce standard curves from which values were interpolated.

[5] = Residual metals in post-centrifugation pellets of brain homogenates (ICP-AES); format: biochemical, human; conditions: Table 6
[6] = molecular target: Aβ1-42 (Homo sapiens, UniProt P05067); experiment: Effect of metal chelators on H2O2 production from Aβ1-42; format: biochemical
Chain of Aβ1-42 (P05067 672-713 limits assumed): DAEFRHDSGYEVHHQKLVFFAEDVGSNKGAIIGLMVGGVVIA

[7] = Table 5, NIST database, cited from earlier work
[8] = Table 5; NIST database; cited from earlier work
[9] = Table 5; NIST database; cited from earlier work; remark: listed apart in the source

C[S+](C)[O-] [DMSO, dimethyl sulfoxide]
effect of OH. scavengers on OH. generation by Aβ1-42 [1]: neither were able to quench

OC[C@@H](O)[C@@H](O)[C@H](O)[C@H](O)CO [mannitol]
effect of OH. scavengers on OH. generation by Aβ1-42 [1]: neither were able to quench
effect on Cu^2+-induced SDS-resistant Aβ polymerization [2]: abolishes the polymerization

bathocuproinedisulfonic acid [BC]
% of total Aβ extracted [3]: 3.1% and 7.2% and 6%
% of total Aβ extracted, + PBS [3]: 2.36% and 5.4% and 3.7%
Extractable Aβ (% of total), X (mean) [3]: (5.4) %
Extractable Aβ, X (mean) [3]: 4.10 µg/g
X C/PBS (mean chelator / PBS) [3]: 3.90
concentration response of Aβ solubilization [3]: typical concentration-dependent response with no decline in effectiveness
mean increase of Aβ solubilization over PBS alone [3]: around 4 fold
Extractable Aβ ([4]; AC subject 1, chelator 2 mM): 0.03 µg/g
Extractable Aβ (% of total) ([4]; AC subject 1, chelator 2 mM): (5) %
Extractable Aβ ([4]; AC subject 2, chelator 2 mM): 0.24 µg/g
Extractable Aβ (% of total) ([4]; AC subject 2, chelator 2 mM): (5.7) %
Extractable Aβ ([4]; AC subject 3, chelator 2 mM): 0.29 µg/g
Extractable Aβ (% of total) ([4]; AC subject 3, chelator 2 mM): (11.0) %
Extractable Aβ ([4]; AC subject 4, chelator 2 mM): 0.08 µg/g
Extractable Aβ (% of total) ([4]; AC subject 4, chelator 2 mM): (2.6) %
Extractable Aβ ([4]; AC subject 5, chelator 2 mM): 0.98 µg/g
Extractable Aβ (% of total) ([4]; AC subject 5, chelator 2 mM): (27.2) %
Extractable Aβ (% of total), X (mean) ([4]; AC subjects 1-5, chelator 2 mM): (10.3) %
Extractable Aβ, X (mean) ([4]; AC subjects 1-5, chelator 2 mM): 0.32 µg/g
X C/PBS (mean chelator / PBS) ([4]; age-matched control tissue, chelator 2 mM): 1.28
effect on Aβ solubilization compared with AD tissue ([4]; non-demented, aged-matched controls): much reduced
Residual Al in extracted pellet ([5]; chelator 0.001 mM): 88 mg/kg
Residual Ca in extracted pellet ([5]; chelator 0.001 mM): 1306 mg/kg
Residual Cu in extracted pellet ([5]; chelator 0.001 mM): 13 mg/kg
Residual Fe in extracted pellet ([5]; chelator 0.001 mM): 275 mg/kg
Residual Mg in extracted pellet ([5]; chelator 0.001 mM): 225 mg/kg
Residual Zn in extracted pellet ([5]; chelator 0.001 mM): 47 mg/kg
Residual Al in extracted pellet ([5]; chelator 0.004 mM): 33 mg/kg
Residual Ca in extracted pellet ([5]; chelator 0.004 mM): 489 mg/kg
Residual Cu in extracted pellet ([5]; chelator 0.004 mM): 12 mg/kg
Residual Fe in extracted pellet ([5]; chelator 0.004 mM): 231 mg/kg
Residual Mg in extracted pellet ([5]; chelator 0.004 mM): 234 mg/kg
Residual Zn in extracted pellet ([5]; chelator 0.004 mM): 47 mg/kg
Residual Al in extracted pellet ([5]; chelator 0.01 mM): 73 mg/kg
Residual Ca in extracted pellet ([5]; chelator 0.01 mM): 762 mg/kg
Residual Cu in extracted pellet ([5]; chelator 0.01 mM): 13 mg/kg
Residual Fe in extracted pellet ([5]; chelator 0.01 mM): 256 mg/kg
Residual Mg in extracted pellet ([5]; chelator 0.01 mM): 223 mg/kg
Residual Zn in extracted pellet ([5]; chelator 0.01 mM): 49 mg/kg
Residual Al in extracted pellet ([5]; chelator 0.04 mM): 38 mg/kg
Residual Ca in extracted pellet ([5]; chelator 0.04 mM): 753 mg/kg
Residual Cu in extracted pellet ([5]; chelator 0.04 mM): 15 mg/kg
Residual Fe in extracted pellet ([5]; chelator 0.04 mM): 248 mg/kg
Residual Mg in extracted pellet ([5]; chelator 0.04 mM): 226 mg/kg
Residual Zn in extracted pellet ([5]; chelator 0.04 mM): 56 mg/kg
Residual Al in extracted pellet ([5]; chelator 2.0 mM): 42 mg/kg
Residual Ca in extracted pellet ([5]; chelator 2.0 mM): 1602 mg/kg
Residual Cu in extracted pellet ([5]; chelator 2.0 mM): 14 mg/kg
Residual Fe in extracted pellet ([5]; chelator 2.0 mM): 271 mg/kg
Residual Mg in extracted pellet ([5]; chelator 2.0 mM): 254 mg/kg
Residual Zn in extracted pellet ([5]; chelator 2.0 mM): 49 mg/kg
Residual Al in extracted pellet ([5]; chelator 5.0 mM): 38 mg/kg
Residual Ca in extracted pellet ([5]; chelator 5.0 mM): 912 mg/kg
Residual Cu in extracted pellet ([5]; chelator 5.0 mM): 15 mg/kg
Residual Fe in extracted pellet ([5]; chelator 5.0 mM): 249 mg/kg
Residual Mg in extracted pellet ([5]; chelator 5.0 mM): 238 mg/kg
Residual Zn in extracted pellet ([5]; chelator 5.0 mM): 53 mg/kg
effect on H2O2 formation by Aβ1-42 [6]: substantially inhibited; also recorded: inhibited H2O2 formation
effect on Cu^2+-induced SDS-resistant Aβ polymerization [2]: marked decrease in polymerization
Stability constant logK10, Cu^2+ ([7]; Cu^2+): 6.1
Stability constant logK10, Cu^+ ([7]; Cu^+): 19.1
Stability constant logK10, Zn [8]: 4.1
Stability constant logK10, Co [9]: 4.2
